Results on 6 substances are retold here after patent publication US20120294886A1, “PEPTIDE CONJUGATES FOR SUPPRESSING AN IMMUNE RESPONSE, METHODS OF MAKING AND USES THEREFOR” (The University of Queensland, priority 2011, published 2012).

The subject of assay [1] is endoplasmic reticulum (ER). Nature of the assay: Colocalisation of peptide with endoplasmic reticulum in macrophages, confocal microscopy (Example 3). Type of assay: cell-based, mouse. Particulars: 30 or 60 minutes incubation, FIG. 4. As to the method: (§1) For confocal microscopy, macrophages were isolated from normal 8-12-wk old female SJL/J mice peritoneal cell suspensions by adhesion to glass coverslips. The macrophages were then incubated with 100 μM peptide for between 1 min and 24 h at 37° C., the peptide being one of:
(§2) After incubation, cells were fixed with 4% formaldehyde in PBS for 15 min at room temperature and permeabilised with 0.05% digitonin in PBS for 5 min at room temperature or 0.2% Triton X-100 in PBS for 20 min at room temperature.
(§3) The cells were then incubated with murine antibodies against endosomes, lysosomes, endoplasmic reticulum, or MHC class I or II molecules for 1-3 hours at 37° C. After three washes in PBS, cells were incubated with streptavidin-Alexa 488 (1/400 dilution in PBS) or streptavidin-Cy3 (1/450 dilution in PBS) (both from Molecular Probes) and Texas Red-labeled rabbit anti-mouse IgG or IgM for 30 min in the dark at room temperature. After washing with PBS, coverslips were mounted in Aquapolymount medium. Immunofluorescence staining was monitored with a laser scanning microscope (LSM 510; Carl Zeiss Laboratories) equipped with a Plan-Apochromat 63× oil DIC immersion lens (numerical aperture 1.4). […] Quantification of colocalisation was performed on cells from 10 to 12 fields (at least 100 cells) with the colocalisation module of the Zeiss LSM Image Browser software.

Assay [2] has as its system lysosomes. Nature of the assay: Colocalisation of peptide with lysosomes in macrophages, confocal microscopy (Example 3). The format is cell-based, mouse. Particulars: FIG. 3. As for the experimental part: as §1, §2, §3
Assay [3] has as its system MHC class II molecules. As to the kind of experiment: Colocalisation of peptide with MHC class II in macrophages, confocal microscopy (Example 3). The format is cell-based, mouse. Particulars: FIG. 5. As to the method: as §1, §2, §3
Assay [4] relates to endosomes. As to the kind of experiment: Colocalisation of peptide with endosomes in macrophages, confocal microscopy (Example 3). The format is cell-based, mouse. Particulars: FIG. 3. As to the method: as §1, §2, §3
In assay [5] the test system is MHC class I molecules. Nature of the assay: Colocalisation of peptide with MHC class I in macrophages, confocal microscopy (Example 3). Type of assay: cell-based, mouse. Particulars: FIG. 5. As to the method:
as §1, §2, §3

The subject of assay [6] is SJL/J mice. As to the kind of experiment: Induction of EAE by immunisation with peptide in complete Freund's adjuvant (Example 2). The format is in vivo, mouse. Particulars: for Day of Onset / Incidence: EAE; for Day of Onset / Incidence / Score: mice immunised with the peptide in CFA; for Incidence: followed for 6 weeks; for Score: clinical score of EAE; for Duration: duration of the first episode of disease. As for the experimental part:
In examples 2 and 4-8, PLP encephalitogenic epitopes were injected into SJL/J mice to induce EAE, so the mice could be used as an animal model for MS. Such a model has been used in numerous studies, including where preventative or treatment methods for MS are being investigated. The study described in Hofstetter et al., 2007, for example, describes the induction of EAE in SJL mice at pages 1373-1374.
Mice were immunised with the above non-palmitoylated, S-palmitoylated or N-palmitoylated peptides in complete Freund's adjuvant to induce EAE.
(1) Mice were followed for 6 weeks to determine the induction of EAE.

Assay [7] relates to SJL/J mouse. As to the kind of experiment: EAE induction by F188, co-immunisation with A188 or S-palm A188 (Example 5). Type of assay: in vivo. As to the method: One mg per mL of F188 peptide, either alone or together with A188 peptide or S-palm A188 peptide at different molar ratios, was emulsified in an equal volume of complete Freund's adjuvant containing an additional 4 mg/ml Mycobacterium tuberculosis H37Ra. 200 μl of the emulsion (i.e. 100 μg F188) was then injected subcutaneously in a single site on the back of each SJL/J mouse. Each mouse also received 300 ng pertussis toxin intravenously on the same day as the peptide emulsion and then 3 days later.
(§4) The mice were inspected and weighed daily and scored for disease using a 5 point severity scale: 0=no disease; 1=decreased tail tone; 2=no tail tone; 3=hind limb weakness; 4=hind limb paralysis; 5=moribund.

Assay [8] concerns SJL/J mice. As to the kind of experiment: Therapeutic treatment of established S-palm-PLP178-191-induced EAE (Example 7). Type of assay: in vivo, mouse. Particulars: 100 μL of 1 mg/mL in PBS s.c. at score 2.0 or 2.5, followed for 7 days, versus PBS, FIG. 6. As for the experimental part: SJL/J mice were injected subcutaneously with 100 μg S-palm-F188 (S-palm-PLP178-191), i.e. 100 μl of a 1 mg/ml solution emulsified in an equal volume (i.e. 100 μl Complete Freund's Adjuvant containing an extra 4 mg/mL Mycobacterium tuberculosis H37Ra. Each mouse also received 300 ng pertussis toxin intravenously on the same day as the peptide emulsion and then 3 days later.
The mice were then inspected and scored for disease using a 5 point severity scale: 0=no disease; 1=decreased tail tone; 2=no tail tone; 3=hind limb weakness; 4=hind limb paralysis; 5=moribund.
When the mice reached a score between 2.0 or 2.5, each mouse was injected subcutaneously with 100 μL PBS (n=6), 100 μL of 1 mg/mL A188 in PBS (n=6), or 100 μL of 1 mg/mL S-palm-A188 in PBS (n=7).
Mice were then followed for 7 days, and scored each day.

Assay [9] has as its system lymph node cells (LNC). As to the kind of experiment: CD4/CD8 ratio of activated LNC by flow cytometry (Example 2). Particulars: activated LNC from immunised mice, 4 per group. Type of assay: cell-based, mouse. As to the method: Lymph nodes from a different group of mice immunised in the same manner were removed 10 days after injection of the peptides and single cell suspensions of lymph node cells (LNC) were prepared.
(3) Other LNC were incubated with antibodies against CD4 or CD8, and the ratio of CD4 to CD8 was determined using flow cytometric techniques. LNC were centrifuged through a Ficoll gradient and washed with PBS containing 1% FCS and 0.01% sodium azide (wash buffer). Aliquots of 1 million cells were incubated with antibodies specific for CD4 (clone RM4-5; rat IgG2a) or CD8a (clone 53-6.7; rat IgG2a) together with an antibody specific for the TCR β-chain (H57-597; hamster IgG) for 30 min at 4° C. in the dark, followed by FITC-conjugate anti-rat κ-chain or PE-conjugated anti-hamster IgG for 30 min at 4° C. in the dark. Isotype-matched primary antibodies were used as controls. All antibodies were purchased from PharMingen (San Diego, Calif.) and were used at 1 μg/ml dilution in wash buffer. After washing, cells were resuspended in wash buffer and analysed using a FACSCalibur flow cytometer (Becton Dickinson, Franklin Lakes, N.J.).
On the technique in general: Flow cytometry measures light scatter and fluorescence of single cells or particles in a stream.

The subject of assay [10] is SJL/J mouse. Nature of the assay: EAE induction by W144, co-immunisation with Q144 or S-palm Q144 (Example 4). The format is in vivo. As to the method:
One mg per mL of W144 peptide, either alone or together with Q144 peptide or S-palm Q144 peptide at different molar ratios, was emulsified in an equal volume of complete Freund's adjuvant containing an additional 4 mg/ml Mycobacterium tuberculosis H37Ra. 200 μl of the emulsion (i.e. 100 μg W144) was then injected subcutaneously in a single site on the back of each SJL/J mouse. Each mouse also received 300 ng pertussis toxin intravenously on the same day as the peptide emulsion and then 3 days later.
as §4

The mark [11] stands for this setting: EAE, 100 μg W144 alone in CFA s.c.

As to “PLP139-151 Cys140-Palm Lys150-Biot (S-palm) (HCLGKWLGHPDKF) [S-palm peptide]”, in [1], the “Colocalisation with endoplasmic reticulum (ER)” value is “but not S-palm peptide colocalised strongly”. Moreover, the Colocalisation with lysosomes entry in [2] is listed as “colocalised strongly with lysosomes”. The “Colocalisation with MHC class II” value in [3] was “colocalised strongly with MHC class II”. Further, the Colocalisation with endosomes entry in assay [4] was “colocalised rapidly and strongly with endosomes”. For the same substance, the “Colocalisation with MHC class I” value in [5] is given as “only a small percentage”.
In the case of “H2N-NTWTTCQSIAFPSK-CO2H (H-NTWTTCQSIAFPSK-OH) [PLP178-191]”, in [6], the “Day of Onset” value was found to be 13.0 ± 1.5 days, the Incidence is 5/5, the Score came out at 2.7 ± 0.9 and the Duration turned out to be 5.8 ± 0.4. In [7] (5 point scale, F188 alone), the Mean severity worked out at 2.8 ± 0.3. The Incidence in assay [7] (EAE, 100 μg F188 alone in CFA s.c.) was 8/8. Also, the “Mean day of onset” value in [7] (EAE, F188 alone) was found to be 11.3 ± 0.5 days.
Take “H2N-NTWTTCQSIAAPSK-CO2H (H-NTWTTCQSIAAPSK-OH) [A188]”: in assay [8], the “Mean EAE score after treatment” value is “intermediate between the control group and the S-palm-A188-treated group”. Also, the “Protective effect on EAE (in words)” value in [7] (injected at a dose 5 times greater than the encephalitogenic peptide F188) is reported as “protective”.
For the substance “PLP139-151 His139-Palm Lys150-Biot (N-palm) (HCLGKWLGHPDKF) [N-palm peptide]”, the “Colocalisation with endoplasmic reticulum (ER)” value in [1] was “colocalised strongly with endoplasmic reticulum (ER)”. In addition, in assay [2], the Colocalisation with lysosomes result is listed as “did not colocalise strongly with lysosomes in most cells”. In addition, the Colocalisation with endosomes entry in assay [4] is listed as “did not colocalise strongly with endosomes in most cells”. Also, the “Colocalisation with MHC class I” value in assay [5] is recorded as “colocalised strongly with MHC class I”.
Take “H2N-HCLGKWLGHPDKF-CO2H (H-HCLGKWLGHPDKF-OH) [PLP139-151]”: the “CD4/CD8 Ratio (mean ± SEM)” value in assay [9] is given as 2.18 ± 0.19. In assay [6], the “Day of Onset” value is 11.0 ± 1.4 days, the Incidence is listed as 4/4, the Score is 3.0 ± 0.7 and the Duration is recorded as 5.8 ± 1.8. Also, in [10] (setting [11]), the Incidence is on record as 4/4 and the “Mean day of onset” value is 11.5 days. This substance had a Mean severity in [10] (mean maximum severity of mice that developed EAE, 5 point scale, W144 alone) of 4.3.
As for “H2N-KTTICGKGLSATVT-CO2H (H-KTTICGKGLSATVT-OH) [PLP104-117]”, the “CD4/CD8 Ratio (mean ± SEM)” value in assay [9] was 2.31 ± 0.07. Moreover, in assay [6], the Incidence is 0/4 and the Score stood at 0.
